Among the data in paper PMC5858925, “Mechanochemical coupling and bi-phasic force-velocity dependence in the ultra-fast ring ATPase SpoIIIE” (eLife, 2018) are KM values, retold here.

The test deals with T1, SpoIIIE (Bacillus subtilis, UniProt P21458).
T1 construct: recombinant SpoIIIE, homo-hexamer, immobilized on polystyrene beads
The test can be described thus: optical tweezers, pause-free DNA translocation velocity vs [ATP], Michaelis-Menten fit. It is filed as biochemical. Particulars: 0.25-5 mM ATP; 5 pN opposing force; dsDNA track; 5 µM ADP and 5 µM Pi.

T1 sequence (P21458 whole entry): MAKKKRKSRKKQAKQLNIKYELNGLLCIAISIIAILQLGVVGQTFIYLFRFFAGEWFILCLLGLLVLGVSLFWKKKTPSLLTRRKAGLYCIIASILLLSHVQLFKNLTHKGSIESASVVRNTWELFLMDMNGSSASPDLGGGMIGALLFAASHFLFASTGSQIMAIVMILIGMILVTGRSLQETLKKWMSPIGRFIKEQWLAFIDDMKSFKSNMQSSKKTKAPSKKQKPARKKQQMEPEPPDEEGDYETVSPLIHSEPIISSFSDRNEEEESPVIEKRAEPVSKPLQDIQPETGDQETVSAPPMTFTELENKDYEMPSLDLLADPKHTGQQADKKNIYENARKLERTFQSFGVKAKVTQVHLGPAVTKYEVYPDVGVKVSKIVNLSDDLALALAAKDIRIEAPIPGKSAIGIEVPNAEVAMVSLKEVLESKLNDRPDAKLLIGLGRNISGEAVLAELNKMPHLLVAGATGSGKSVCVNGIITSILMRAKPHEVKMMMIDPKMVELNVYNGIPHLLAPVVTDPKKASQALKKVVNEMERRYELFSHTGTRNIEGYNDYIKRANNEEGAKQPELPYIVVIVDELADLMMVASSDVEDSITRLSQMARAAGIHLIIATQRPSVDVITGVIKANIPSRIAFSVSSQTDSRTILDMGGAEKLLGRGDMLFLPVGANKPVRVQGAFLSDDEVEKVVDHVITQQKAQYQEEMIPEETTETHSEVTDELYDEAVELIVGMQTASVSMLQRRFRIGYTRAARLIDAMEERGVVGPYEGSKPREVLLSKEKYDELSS

With `Nc1ncnc2c1ncn2[C@@H]1O[C@H](COP(=O)(O)OP(=O)(O)OP(=O)(O)O)[C@@H](O)[C@H]1O` [ATP], the KM entry is “Although both Vmax and KM decrease with force, Vmax/KM is largely force-independent”.
